The text below walks through data of PubChem BioAssay (NCI).

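These data come from cells grown in 96-well plates and exposed to compound for 48 hours at five concentrations. The concentration for full growth arrest is given as TGI.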 Where a SMILES comes first, the peptide text is derived from it. The star is where a group is joined. Boc = CC(C)(C)OC(=O)* Where only a bound is given, the exact number is not on record here.

Among the test systems are UACC-62 melanoma; HCT-15 colon; SK-MEL-5 melanoma; MDA-MB-435; TK-10 renal; SK-MEL-2 melanoma; NCI-H460 lung; MOLT-4 leukemia; OVCAR-3 ovarian; MALME-3M melanoma; PC-3 prostate; MDA-N; EKVX NSCLC; MCF7 breast; ACHN renal; M14 melanoma; HOP-92 NSCLC; NCI-H522 lung.
Common to all, as to test: growth of human tumour cells (NCI), 48 h

As to `Nc1ncnc2c1nnn2C1C=CC(COS(N)(=O)=O)C1` (stereo unspecified), the TGI was 35.4 µM with UACC-62 melanoma; above 100 µM in the assay on HCT-15 colon; 15.9 µM in the assay on SK-MEL-5 melanoma; 41.3 µM with MDA-MB-435; 36.4 µM with TK-10 renal; 21.4 µM in the assay with SK-MEL-2 melanoma. In addition, the TGI with NCI-H460 lung is above 100 µM; in the assay on MOLT-4 leukemia it was above 100 µM; in the assay with OVCAR-3 ovarian, 96.1 µM; in the assay on MALME-3M melanoma it was above 100 µM; in the assay on PC-3 prostate, 26.9 µM; with MDA-N it was 19 µM. Further, the TGI in the assay with EKVX NSCLC is above 100 µM; in the assay on MCF7 breast it was above 100 µM; in the assay with ACHN renal, 49.1 µM; with M14 melanoma, 25 µM.
Take `O=S(=O)(c1ccccc1)n1c2ccc(Br)cc2c2nc3ccccc3nc21`: the TGI with UACC-62 melanoma, in the assay with HCT-15 colon, in the assay with HOP-92 NSCLC, in the assay on SK-MEL-5 melanoma, in the assay with MDA-MB-435 and with TK-10 renal was above 100 µM throughout. The TGI in the assay on SK-MEL-2 melanoma, with NCI-H460 lung, in the assay on MOLT-4 leukemia, in the assay with OVCAR-3 ovarian, in the assay with MALME-3M melanoma and in the assay on PC-3 prostate was above 100 µM each time. Besides, the TGI with MDA-N, in the assay on NCI-H522 lung, with ACHN renal and in the assay with M14 melanoma was above 100 µM throughout.
As to `Cc1ccsc1/C=N/Nc1nc2ccccc2s1`, the TGI with UACC-62 melanoma was above 100 µM; with HCT-15 colon, above 100 µM; in the assay on HOP-92 NSCLC it was 49.5 µM; in the assay on SK-MEL-5 melanoma, 47.9 µM; in the assay on MDA-MB-435 it was above 100 µM; in the assay with TK-10 renal it was 26.9 µM. The TGI is 75.3 µM in the assay with SK-MEL-2 melanoma; 31.3 µM with MOLT-4 leukemia; 60.7 µM in the assay on OVCAR-3 ovarian; 50.1 µM with PC-3 prostate; above 100 µM in the assay on MDA-N; 41.9 µM with EKVX NSCLC. The TGI was 36 µM with MCF7 breast, 30.8 µM with ACHN renal and above 100 µM with M14 melanoma.
Consider `COC(=O)C(Cc1c[nH]c2ccccc12)NC(=O)C(Cc1c[nH]c2ccccc12)NC(=O)C(Cc1c[nH]c2ccccc12)NC(=O)C(Cc1c[nH]c2ccccc12)NC(=O)C(Cc1c[nH]c2ccccc12)NC(=O)C(Cc1c[nH]c2ccccc12)NC(=O)OC(C)(C)C` (stereo unspecified) (Boc-WWWWWW-OMe; configuration not given here), for which the TGI with UACC-62 melanoma is above 100 µM; with HCT-15 colon, above 100 µM; in the assay on SK-MEL-5 melanoma, 70.5 µM; in the assay on MDA-MB-435, above 100 µM; in the assay on TK-10 renal it was above 100 µM; with SK-MEL-2 melanoma, above 100 µM. In addition, the TGI with NCI-H460 lung, in the assay with MOLT-4 leukemia, in the assay on OVCAR-3 ovarian, in the assay on MALME-3M melanoma, in the assay with PC-3 prostate and in the assay with MDA-N was above 100 µM each time. Further, the TGI with MCF7 breast, in the assay with NCI-H522 lung and with ACHN renal was above 100 µM in each case.
With `BrCCCCCOc1ccc(-c2c3ccccc3c(-c3ccc(OCCCCCBr)cc3)c3ccccc23)cc1`, the TGI in the assay on UACC-62 melanoma, in the assay with HCT-15 colon, with SK-MEL-5 melanoma, in the assay on MDA-MB-435, with TK-10 renal and in the assay on SK-MEL-2 melanoma was above 100 µM each time. For the same compound, the TGI in the assay on NCI-H460 lung, in the assay on MOLT-4 leukemia, in the assay with PC-3 prostate, with MDA-N, in the assay on EKVX NSCLC and in the assay on MCF7 breast was above 100 µM each time. Further, the TGI in the assay on ACHN renal and in the assay with M14 melanoma was above 100 µM throughout.
`O=C(/C=C/c1ccc(O)cc1)c1ccc2c(c1)OCO2`: the TGI with UACC-62 melanoma is 47.6 µM; in the assay with HCT-15 colon, 83.8 µM; with HOP-92 NSCLC, 58.8 µM; in the assay with SK-MEL-5 melanoma, 29.4 µM; in the assay on MDA-MB-435 it was 69.5 µM; in the assay on SK-MEL-2 melanoma, 62.4 µM. Also, the TGI is 77.2 µM with NCI-H460 lung; 52.3 µM with MOLT-4 leukemia; 41 µM with OVCAR-3 ovarian; above 100 µM in the assay on MALME-3M melanoma; 62.2 µM in the assay with PC-3 prostate; 86.1 µM in the assay with MDA-N. Moreover, the TGI was above 100 µM in the assay with EKVX NSCLC, 34.2 µM in the assay with NCI-H522 lung, 52.8 µM in the assay on ACHN renal and 51.9 µM with M14 melanoma.
For `COC(=O)/C(=C\Nc1cccc(C)n1)S(=O)(=O)c1ccc(C)cc1`, the TGI in the assay on UACC-62 melanoma was 91.5 µM; in the assay on HCT-15 colon it was above 100 µM; in the assay on HOP-92 NSCLC, above 100 µM; with SK-MEL-5 melanoma it was above 100 µM; in the assay with MDA-MB-435 it was above 100 µM; in the assay with TK-10 renal it was above 100 µM. Besides, the TGI with SK-MEL-2 melanoma was above 100 µM; with NCI-H460 lung it was above 100 µM; in the assay with MOLT-4 leukemia, 70.4 µM; in the assay with OVCAR-3 ovarian it was above 100 µM; in the assay on MALME-3M melanoma, above 100 µM; in the assay with PC-3 prostate it was above 100 µM. The TGI in the assay on MDA-N, in the assay on MCF7 breast, in the assay on NCI-H522 lung, in the assay on ACHN renal and in the assay on M14 melanoma was above 100 µM in each case.
For the compound `N/C(=N\S(=O)(=O)c1ccc(S(=O)(=O)c2ccccc2)s1)Nc1ccc(Cl)cc1`, the TGI with UACC-62 melanoma was determined as 24.4 µM; in the assay on HCT-15 colon, 35.1 µM; in the assay on HOP-92 NSCLC, 39.1 µM; with SK-MEL-5 melanoma, 32.5 µM; in the assay on TK-10 renal, 51.1 µM; in the assay with SK-MEL-2 melanoma, 31.6 µM. In addition, the TGI was determined as 33.8 µM in the assay on NCI-H460 lung; 59.6 µM with MOLT-4 leukemia; 79.6 µM with OVCAR-3 ovarian; 47.9 µM with MALME-3M melanoma; 29.6 µM in the assay with PC-3 prostate; 39.1 µM in the assay on MDA-N. The TGI in the assay with EKVX NSCLC worked out at 40.4 µM; with MCF7 breast, 35.6 µM; in the assay with NCI-H522 lung it was 28.9 µM; in the assay on ACHN renal it was 71.4 µM; in the assay on M14 melanoma, 37.3 µM.
